These results are taken from paper PMC8596838, “Xylose‐Configured Cyclophellitols as Selective Inhibitors for Glucocerebrosidase” (Chembiochem, 2021).

The target in this assay is T1, GBA2 (Homo sapiens, UniProt Q9HCG7).
T1 construct: expressed in transfected cells; host or cells: HEK293T (GBA/GBA2 KO background for the fluorogenic assay; endogenous-GBA background with GBA2 and GBA3 overexpressed for ABPP and intact-cell assays)
T1 sequence (Q9HCG7 1-927): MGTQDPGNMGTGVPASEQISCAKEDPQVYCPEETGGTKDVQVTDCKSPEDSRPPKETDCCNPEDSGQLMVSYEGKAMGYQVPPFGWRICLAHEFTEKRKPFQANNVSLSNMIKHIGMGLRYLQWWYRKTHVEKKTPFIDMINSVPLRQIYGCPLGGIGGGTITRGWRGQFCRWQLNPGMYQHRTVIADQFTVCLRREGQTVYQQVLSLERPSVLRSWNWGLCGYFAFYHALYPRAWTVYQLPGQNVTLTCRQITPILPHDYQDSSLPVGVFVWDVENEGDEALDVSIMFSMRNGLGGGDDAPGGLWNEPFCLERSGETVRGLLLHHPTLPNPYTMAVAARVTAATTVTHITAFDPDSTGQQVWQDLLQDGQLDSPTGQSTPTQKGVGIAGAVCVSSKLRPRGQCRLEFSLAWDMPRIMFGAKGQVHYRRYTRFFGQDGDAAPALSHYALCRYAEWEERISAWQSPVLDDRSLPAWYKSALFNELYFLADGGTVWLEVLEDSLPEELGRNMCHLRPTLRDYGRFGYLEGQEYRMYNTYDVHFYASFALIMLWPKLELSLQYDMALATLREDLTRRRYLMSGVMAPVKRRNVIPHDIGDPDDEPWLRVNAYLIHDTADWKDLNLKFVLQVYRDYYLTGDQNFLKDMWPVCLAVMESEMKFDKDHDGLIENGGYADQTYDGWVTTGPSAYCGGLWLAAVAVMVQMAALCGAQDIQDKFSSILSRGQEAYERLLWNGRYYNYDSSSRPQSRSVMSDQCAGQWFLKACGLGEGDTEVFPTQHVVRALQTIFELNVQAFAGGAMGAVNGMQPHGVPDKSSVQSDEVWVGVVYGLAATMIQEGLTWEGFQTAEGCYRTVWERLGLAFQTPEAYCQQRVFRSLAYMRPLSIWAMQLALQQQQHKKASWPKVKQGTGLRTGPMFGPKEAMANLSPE
As to the kind of experiment: Inhibition in intact HEK293T cells (24 h), read out by cABPP with ABP 10, GBA2. Type of assay: cell-based. Particulars: for IC50: 24 h treatment, cABPP quantification, n=3; for GBA2/GBA ratio, intact cells: IC50 ratio, 24 h. From the text:
We next examined the activity of 1 and 2 towards the three human β‐D‐glucosidase in intact HEK293T cells. […] It is noted that the GBA‐selectivity of both compounds is much improved in intact cells than in the in vitro system (Figure 2 and Table 1). This is especially true for compound 1, where an impressive 4‐logs of selectivity window is observed.
Figure 5 Inhibitory effect of β‐D‐xylo‐configured cyclophellitol 1 and cyclophellitol aziridine 2 on β‐glucosidases in intact HEK293T cells expressing GBA, GBA2 and GBA3. (A) Representative gel images of cABPP where cells were treated for 24 h with indicated inhibitor. Lysates were then prepared and labeled with fluorescent ABP 10. Fluorescently labeled proteins were visualized after SDS‐PAGE (1 set from n=3 replicates). (B) IC50 curves determined by cABPP labeling results. (C) Apparent IC50 values towards β‐glucosidases in intact HEK293T cells producing GBA, GBA2 and GBA3 were determined by the fluorescence quantification based on cABPP SDS‐PAGE results.
ABP labeling procedure: Glycosidases were labeled with excess fluorescent ABPs at optimum conditions. ABP labeling was performed at 37 °C for 30 min for all materials (if not otherwise stated), in a total sample volume of 20–40 μL and 0.5–1 % DMSO concentration. GBA was labeled with 200 nM ABP 9 (pH 5.2, 0.1 % (v/v) Triton‐100, 0.2 % (w/v) sodium taurocholate), or labeled together with GBA2 using 200 nM β‐D‐glucose‐configured aziridine ABP 10 at pH 5.8, or labeling together with GBA2 and GBA3 using 200 nM β‐D‐glucose‐configured aziridine ABP 10 at pH 6.0. After ABP incubation, proteins were denatured by boiling the samples with 5× Laemmli buffer (50 % (v/v) 1 M Tris‐HCl, pH 6.8, 50 % (v/v) 100 % glycerol, 10 % (w/v) DTT, 10 % (w/v) SDS, 0.01 % (w/v) bromophenol blue) for 5 min at 98 °C, and separated by electrophoresis on 10 % (w/v) SDS‐PAGE gels running continuously at 90 V. Wet slab‐gels were scanned on fluorescence using the Typhoon FLA 9500 (GE Healthcare) at λEX 473 nm and λEM≥510 nm for green fluorescent ABP 8; and at λEX 635 nm and λEM≥665 nm for ABP 6, 9 and 10. ABP‐emitted fluorescence was quantified using ImageQuant software (GE Healthcare, Chicago, IL, USA) and curve‐fitted using Prism 8.0 (GraphPad Software). After fluorescence scanning, SDS‐PAGE gels were stained for total protein with Coomassie G250 and scanned on a ChemiDoc MP imager (Bio‐Rad, Hercules, CA, USA).[25]
Assessment of inhibitor activity in cultured cells: Confluent HEK293T stably expressing human GBA and GBA2 GBA3 overexpressing were cultured in 24‐well plates in triplicates with(out) inhibitors for 24 h at 37 °C with 7 % CO2. […]

As to `O[C@@H]1[C@@H](O)[C@H](O)C[C@H]2O[C@@H]12` [compound 1, xylo‐cyclophellitol], the IC50 (as a rule, the midpoint of a concentration-inhibition curve) was over 100 µM and the “GBA2/GBA ratio, intact cells” value is given as over 10000.

In the case of `O[C@@H]1[C@@H](O)[C@H](O)C[C@H]2N[C@@H]12` [compound 2, β‐D‐xylo‐Cyclophellitol aziridine], the 50% inhibitory concentration (IC50) is 10.4 ± 1.53 µM and the “GBA2/GBA ratio, intact cells” value is reported as 247.
